Test results published in article PMC5855875, “Teixobactin analogues reveal enduracididine to be non-essential for highly potent antibacterial activity and lipid II binding” (Chemical Science, 2017).
Values after ≈ are worked out from the molar mass of the structure shown. Like-named read-outs stand apart in the source and are kept apart here. Bridge positions count the residues as written; N and C are the ends. Square brackets hold non-standard residues; d marks the D form. Peptide text beside a SMILES is read from it. d(aIle) = CC[C@H](C)[C@@H](N)C(=O)O; dNMeF = CN[C@H](Cc1ccccc1)C(=O)O

Key:
[1] = system: MRSA ATCC 33591; assay: microbe, parasite or virus in culture
Protocol: (§1) were grown in Mueller Hinton broth (Oxoid) in triplicate. All incubations were at 37°C. Dilutions were carried out in triplicate. 100 µl of autoclaved Mueller Hinton broth was added to wells 2-12 in a 96-well plate. 200 µl of the peptide was added to well one at a concentration of 256 µg/mL. 100µl of peptide in well one was taken up and pipetted into well two. The mixture was then mixed via pipetting before 100µl was taken up and pipetted into well three. This process was repeated up to well 11. Once […]
(§2) peptide present. Thus, the concentrations (in µg/mL) were: 256, 128, 64, 32, 16, 8, 4, 2, 1, 0.5, 0.25 and no peptide present. Each well was then inoculated with 100µl of bacteria that had been diluted to an […]
(§3) This was repeated three times. The 96-well plates were then incubated at 37°C for 24 hours. The MIC was determined to be the lowest concentration at which there was no growth visible. […]
(§4) was repeated at an altered initial concentration of 64 µg/ml. Therefore, the new concentrations for MIC […]
(§5) VIII. MIC testing (extended panel)
(§6) Bacterial cultures were grown overnight i n Mueller-Hinton Agar (MHA) plates and adjusted to a final concentration of 10 5 – 106 CFU/ml. 100 µl of inoculum in Meuller -Hinton broth (MHB) was mixed with equal volume of peptides (dissolved in MHB) at 2x their concentration in a 96 well plate. In parallel experiments, MIC values were determined in the media containing polysorbate 80 (0 .002%, v/v) to […]

[2] = system: MRSA 1: MRSA ATCC 700699; assay: microbe, parasite or virus in culture
Protocol: as §5, §6
(§7) prevent non-specific adsorption of the peptides to plastic surfaces. The final peptides concentrations […]
(§8) Positive and negative controls contained 200 µl of inoculum without any peptide dissolved in broth, respectively. The 96 well plates were then incubated at 37 °C for 24 h.
(§9) All the experiments were performed in two independent duplicates and the MIC was determined as the […]
(§10) Minimum bactericidal concentration
(§11) The lowest concentration in which no visible colonies could be detected was taken as the MBC.
(§12) 80. Strain information: MRSA 1: MRSA ATCC 700699, MRSA 2: MRSA DR 42412 (sputum), MRSA
(§13) 3: MRSA DM21455 (eye). […] Staphylococcus aureus ATCC

[3] = system: MRSA 3: MRSA DM21455 (eye); assay: microbe, parasite or virus in culture
Protocol: as §5, §6, §7, §8, §9, §10, §11, §12, §13

[4] = system: Staphylococcus aureus ATCC 29213; assay: microbe, parasite or virus in culture
Protocol: as §5, §6, §7, §8, §9, §10, §11, §12, §13

[5] = system: MRSA 2: MRSA DR 42412 (sputum); assay: microbe, parasite or virus in culture
Protocol: as §5, §6, §7
(§14) Positive and negative controls contained 200 µl of inoculum without any peptide dissolved in broth, respectively. The 96 well plates were then incubated at 37 °C for 24 h. […]
as §12, §13

[6] = system: VRE 1: VRE ATCC 700802; assay: organism not typed
Protocol: as §5, §6, §7, §14, §12, §13

[7] = system: VRE 2: VRE ATCC 29212; assay: organism not typed
Protocol: as §5, §6, §7, §14, §12, §13

[8] = system: M. smegmatis ATCC 607; assay: microbe, parasite or virus in culture
Protocol: as §1, §2, §3, §4
Middlebrook 7H9 broth (SIGMA) supplemented to 5% Middlebrook ADC (SIGMA) growth

[9] = system: MRSA DM21455; assay: Time-kill kinetics; type: cell-based, Methicillin-resistant Staphylococcus aureus
Protocol: IX. Time-dependent killing of bacteria by teixobactin analogues 12 and 13 Time-kill kinetics against MRSA DM21455 strains (clinical isolates from patients) was carried out in MHB. Cultures were grown overnight in MHA plates and adjusted to a final inoculum of 10^5 – 10^6 CFU/ml in MHB (containing 0.002% v/v, polysorbate 80) with teixobactin analogues 12 and 13 maintained at a final concentration of 0.5 µg/ml. For vancomycin, the concentration was varied from 0.5 – 16 µg/ml without polysorbate 80. The tubes were then incubated at 37 °C. 100 µl of cell suspension was withdrawn at various time points (0, 2, 4, 8, 24 h), serially diluted (101-105 fold dilutions) and plated onto a MHA plates and incubated for 24 h at 37 °C.
Colonies were then enumerated […]. Colony counting too numerous to count (>300 colonies) was taken as 1010 CFU. Average values from two independent experiments are reported. […]
(also on this page, place not known: polyso rbate vancomycin , concentr ation 80 . wer e µ l (10 1-105 10 10 previously n - TL C three S76: (Ala10-teixobactin) literature.7 Lipid II Lipid II: Compound 8 = 1:1 Lipid II: Compound 16 = 1:1 Lipid II: Compound 8 = 1:2 Lipid II: Compound 16 = 1:2 Lipid II: Compound 8 = 1:4)

[10] = Staphylococcus aureus, MRSA, 24 h
[11] = Staphylococcus aureus, MRSA, 24 h, read-out: MIC (with polysorbate 80)
[12] = Staphylococcus aureus, MRSA, 24 h, read-out: MIC (without polysorbate 80)
[13] = Enterococcus, 24 h, read-out: MIC (with polysorbate 80)
[14] = Enterococcus, 24 h, read-out: MIC (without polysorbate 80)

CN[C@H](CC(C)C)C(=O)N[C@H]1C(=O)N[C@@H](CC(N)=O)C(=O)N[C@H]2C(=O)N[C@H]3C(=O)N[C@H](C(=O)N[C@H](C(=O)O)c4cc(O)cc(O)c4-c4cc3ccc4O)[C@H](O)c3ccc(c(Cl)c3)Oc3cc2cc(c3O[C@@H]2O[C@H](CO)[C@@H](O)[C@H](O)[C@H]2O[C@H]2C[C@](C)(N)[C@H](O)[C@H](C)O2)Oc2ccc(cc2Cl)[C@H]1O [Compound 18, Vancomycin, reference compound]
MIC ([1]; Staphylococcus aureus, 24 h): 2 µg/mL (≈ 1.38 µM)
MIC ([2]; Staphylococcus aureus, 24 h): 2 µg/mL (≈ 1.38 µM)
MIC ([2]; Staphylococcus aureus, ATCC700699|MRSA, 24 h, read-out: MIC (with polysorbate 80)): 1 µg/mL (≈ 0.69 µM)
MIC ([2]; Staphylococcus aureus, ATCC700699|MRSA, 24 h, read-out: MIC (without polysorbate 80)): 2 µg/mL (≈ 1.38 µM)
MIC [3, 10]: 2 µg/mL (≈ 1.38 µM)
MIC [3, 11]: 1 µg/mL (≈ 0.69 µM)
MIC [3, 12]: 2 µg/mL (≈ 1.38 µM)
MIC ([4]; Staphylococcus aureus, ATCC29213, 24 h, read-out: MIC (with polysorbate 80)): 2 µg/mL (≈ 1.38 µM)
MIC ([4]; Staphylococcus aureus, ATCC29213, 24 h, read-out: MIC (without polysorbate 80)): 4 µg/mL (≈ 2.76 µM)
MIC ([4]; Staphylococcus aureus, ATCC29213 / MSSA, 24 h): 4 µg/mL (≈ 2.76 µM)
MIC [5, 10]: 2 µg/mL (≈ 1.38 µM)
MIC [5, 11]: 1 µg/mL (≈ 0.69 µM)
MIC [5, 12]: 2 µg/mL (≈ 1.38 µM)
MIC [6]: > 4 µg/mL
MIC [6, 13]: > 4 µg/mL
MIC [6, 14]: > 4 µg/mL
MIC [7]: > 4 µg/mL
MIC [7, 13]: > 4 µg/mL
MIC [7, 14]: > 4 µg/mL
MIC ([8]; Mycolicibacterium smegmatis, ATCC607, 72 h): > 64 µg/mL
time-kill outcome ([9]; 0.5 μg mL^–1, without polysorbate 80, 37 °C): substantial growth was observed
concentration needed for similar effects as teixobactin analogues 12 & 13 in time-kill ([9]; MRSA 21455, without polysorbate 80): 8 μg mL^–1

CC[C@H](C)[C@@H]1NC(=O)[C@H](C)NC(=O)[C@H](NC(=O)[C@H](CO)NC(=O)[C@@H](NC(=O)[C@H](NC(=O)[C@@H](CCC(N)=O)NC(=O)[C@H](CO)NC(=O)[C@@H](NC(=O)[C@@H](Cc2ccccc2)NC)[C@@H](C)CC)[C@@H](C)CC)[C@@H](C)CC)[C@H](C)OC(=O)[C@H]([C@@H](C)CC)NC1=O [Compound 12, Ile10-teixobactin] (H-[dNMeF]IS[dQ][d(aIle)]IS[dT]AII; ester 8-C)
MIC ([1]; ATCC 33591, 24 h): 0.25 μg mL^–1
MIC ([2]; ATCC 700699, 24 h): 0.25 μg mL^–1
MIC (without polysorbate 80) ([2]; ATCC 700699, 24 h): 2 µg/mL (≈ 1.66 µM)
MBC ([2]; MRSA 1 (MRSA ATCC 700699), plated on MHA, 37 °C, 24 h): 1 μg mL^–1
MIC (with polysorbate 80) ([2]; MRSA 1, MHB containing polysorbate 80 (0.002%, v/v), 37 °C, 24 h, two independent duplicates): 0.25 µg/mL (≈ 0.208 µM)
MIC ([3]; 3: DM21455 (eye, 24 h)): ≤0.0625 μg mL^–1
MIC (without polysorbate 80) ([3]; 3: DM21455 (eye, 24 h)): 2 µg/mL (≈ 1.66 µM)
MBC ([3]; MRSA 3 (MRSA DM21455), plated on MHA, 37 °C, 24 h): 0.125 μg mL^–1
MIC (with polysorbate 80) ([3]; MRSA 3, MHB containing polysorbate 80 (0.002%, v/v), 37 °C, 24 h): ≤ 0.0625 µg/mL
MIC ([4]; ATCC 29213, 24 h): ≤0.0625 μg mL^–1
MIC (without polysorbate 80) ([4]; ATCC 29213, 24 h): 1 µg/mL (≈ 0.832 µM)
MIC (with polysorbate 80) ([4]; S. aureus ATCC 29213, MHB containing polysorbate 80 (0.002%, v/v), 37 °C, 24 h): ≤ 0.0625 µg/mL
MBC ([4]; Staphylococcus aureus ATCC 29213, plated on MHA, 37 °C, 24 h): 0.125 μg mL^–1
MIC ([5]; 2: DR 42412 (sputum, 24 h)): ≤0.0625 μg mL^–1
MIC (without polysorbate 80) ([5]; 2: DR 42412 (sputum, 24 h)): 2 µg/mL (≈ 1.66 µM)
MIC (with polysorbate 80) ([5]; MRSA 2, MHB containing polysorbate 80 (0.002%, v/v), 37 °C, 24 h): ≤ 0.0625 µg/mL
MIC (without polysorbate 80) ([6]; ATCC 700802, 24 h): 1 µg/mL (≈ 0.832 µM)
MIC (with polysorbate 80) ([6]; VRE 1, MHB containing polysorbate 80 (0.002%, v/v), 37 °C, 24 h): ≤ 0.0625 µg/mL
MIC (without polysorbate 80) ([7]; ATCC 29212, 24 h): 1 µg/mL (≈ 0.832 µM)
MIC (with polysorbate 80) ([7]; VRE 2, MHB containing polysorbate 80 (0.002%, v/v), 37 °C, 24 h): ≤ 0.0625 µg/mL
MIC ([8]; ATCC 607, 72 h): 0.5 μg mL^–1
time to complete bactericidal activity ([9]; 0.5 μg mL^–1, MHB containing 0.002% v/v polysorbate 80, 37 °C, average of two independent experiments): ≤ 8 h
